Reference: patent publication US9591867B2, “Compositions of abscisic acid for animal health” (Valent BioSciences Corporation, priority 2010, dated 2017)

Tests used:
[1] = system: rats; assay: Two generation reproduction toxicity study, S-ABA continuously in the diet; type: in vivo; settings: for Mean Live Offspring Born: per litter; for SPLEEN WEIGHT, % DIFFERENCE: MALES
Protocol: (§1) Tests were conducted with (S)-(+)-abscisic acid in accordance with standard guidelines and procedures as evidenced by EPA Subchronic Toxicity Test Guidelines: 870.3050—Repeated Dose 28-Day Oral Toxicity Study in Rodents (July 2000); 870.3100—90-Day Oral Toxicity in Rodents (August 1998); 870.3650—Combined Repeated Dose Toxicity Study with the Reproduction/Developmental Toxicity Screening Test (July 2000); and 870.3200—21/28-Day Dermal Toxicity (August 1998), as well as Organization for Economic Co-operation and Development (OECD) Guidelines for the Testing of Chemicals including: Test No. 407: Repeated Dose 28-day Oral Toxicity Study in Rodents; Test No. 408: Repeated Dose 90-Day Oral Toxicity Study in Rodents; Test No. 416: Two-Generation Reproduction Toxicity; and Test No. 410: Repeated Dose Dermal Toxicity: 21/28-day Study.
This study was conducted to determine the potential adverse effects of the test substance on reproduction in a 2-generation study. This included determining the effects of the test substance on male and female reproductive processes, including gonadal function, estrous cyclicity, mating behavior, conception, gestation, parturition, lactation, weaning, and on growth and development of the offspring. A minimum of 1 litter was produced in each generation.
Three groups of male and female were offered ABA, continuously in the diet for at least 70 consecutive days prior to mating. Target tests substance concentrations were 10,000, 15,000, and 20,000 ppm for the F0 and F1 generations. A concurrent control group of 30 rats/sex was offered the basal diet continuously throughout the study. F0 animals were approximately 7 weeks of age at the initiation of test diet administration. The test diet was administered to the offspring selected to become the F1 generation following weaning. The F0 and F1 males continued to receive the test substance throughout mating and continuing through the day prior to euthanasia. The F0 and F1 females continued to receive the test substance throughout mating, gestation, and lactation, and through the day of euthanasia. For both generations (F1 and F2), 8 pups per litter (4 per sex, when possible) were selected to reduce the variability among the litters. Offspring (30/sex/group, if possible) from the pairing of the F0 animals were selected to constitute the F1 generation. F0 males and females were exposed for 127-130 consecutive days and F1 males and females were exposed for 178-186 consecutive days.
All animals were observed twice daily for appearance and behavior. Clinical observations, body weights, and food consumption were recorded at appropriate intervals for males throughout the study and for females prior to mating and during gestation and lactation. All F0 and F1 females were allowed to deliver and rear their pups until weaning on lactation day 21. Clinical observations, body weights, and sexes for F1 and F2 pups were recorded at appropriate intervals. Nonselected F1 pups and all surviving F2 pups were necropsied. Selected organs were weighed from 1 pup/sex/litter from F1 and F2 pups that wee necropsied. Each surviving F0 and F1 parental animal received a complete detailed gross necropsy following the completion of weaning of the F1 and F2 pups, respectively; selected organs were weighed. Spermatogenic endpoints were recorded for all F0 and F1 males, and ovarian primordial follicle counts were recorded for all F0 and F1 females in the control and high-exposure groups and all F0 and F1 females suspected of reduced fertility. Designated tissues from all F0 and F1 parental animals were examined microscopically.

[2] = Fetal data at scheduled necropsy (mg/kg/day dose groups); type: in vivo
Protocol: as §1

[3] = 10,000 ppm in diet, rat offspring
[4] = 20,000 ppm in diet, rat offspring

CC1=CC(=O)CC(C)(C)[C@@]1(O)/C=C/C(C)=C\C(=O)O [S-ABA, (S)-(+)-abscisic acid]
Offspring FOUND DEAD ([1]; 10,000 ppm in diet): 4
OFFSPRING WEIGHT, MEAN ([1]; 10,000 ppm in diet, FEMALE, postnatal day 1): 6.6 grams
OFFSPRING WEIGHT, MEAN ([1]; 10,000 ppm in diet, FEMALE, postnatal day 4): 9.1 grams
OFFSPRING WEIGHT, MEAN ([1]; 10,000 ppm in diet, MALE, postnatal day 1): 7.1 grams
OFFSPRING WEIGHT, MEAN ([1]; 10,000 ppm in diet, MALE, postnatal day 4): 9.7 grams
Mean Live Offspring Born ([1]; 10,000 ppm in diet): 12.3
POSTNATAL SURVIVAL, POSTNATAL DAY 0-1, MEAN [1, 3]: 100.0 % PER LITTER
POSTNATAL SURVIVAL, POSTNATAL DAY 7-14, MEAN [1, 3]: 100.0 % PER LITTER
POSTNATAL SURVIVAL, POSTNATAL DAY 14-21, MEAN [1, 3]: 100.0 % PER LITTER
Offspring FOUND DEAD ([1]; 15,000 ppm in diet): 15
OFFSPRING WEIGHT, MEAN ([1]; 15,000 ppm in diet, FEMALE, postnatal day 1): 6.6 grams
OFFSPRING WEIGHT, MEAN ([1]; 15,000 ppm in diet, FEMALE, postnatal day 4): 8.8 grams
OFFSPRING WEIGHT, MEAN ([1]; 15,000 ppm in diet, FEMALE, postnatal day 7): 14.0 grams
OFFSPRING WEIGHT, MEAN ([1]; 15,000 ppm in diet, MALE, postnatal day 1): 6.9 grams
OFFSPRING WEIGHT, MEAN ([1]; 15,000 ppm in diet, MALE, postnatal day 4): 9.3 grams
Mean Live Offspring Born ([1]; 15,000 ppm in diet): 13.1
POSTNATAL SURVIVAL, POSTNATAL DAY 14-21, MEAN ([1]; 15,000 ppm in diet, rat offspring): 100.0 % PER LITTER
Offspring FOUND DEAD ([1]; 20,000 ppm in diet): 11
OFFSPRING WEIGHT, MEAN ([1]; 20,000 ppm in diet, FEMALE, postnatal day 1): 6.6 grams
OFFSPRING WEIGHT, MEAN ([1]; 20,000 ppm in diet, FEMALE, postnatal day 4): 8.8 grams
OFFSPRING WEIGHT, MEAN ([1]; 20,000 ppm in diet, MALE, postnatal day 1): 7.0 grams
OFFSPRING WEIGHT, MEAN ([1]; 20,000 ppm in diet, MALE, postnatal day 4): 9.3 grams
Mean Live Offspring Born ([1]; 20,000 ppm in diet): 12.3
POSTNATAL SURVIVAL, POSTNATAL DAY 4 (POST-SELECT)-21, MEAN [1, 4]: 98.0 % PER LITTER
POSTNATAL SURVIVAL, POSTNATAL DAY 14-21, MEAN [1, 4]: 100.0 % PER LITTER
SPLEEN WEIGHT, % DIFFERENCE ([1]; 10,000 PPM vs 0 PPM): −2.0%
SPLEEN WEIGHT, % DIFFERENCE ([1]; 15,000 PPM vs 0 PPM): −3.0%
SPLEEN WEIGHT, % DIFFERENCE ([1]; 20,000 PPM vs 0 PPM): −8.9%
offspring mortality (in words) ([1]; conclusion from Table 3): decreases
number of live offspring per litter (in words) ([1]; conclusion from Table 4): increases
follicle size (in words) ([1]; conclusion from Table 6): increase
postnatal offspring survival rates (in words) ([1]; rats, conclusion from Table 1): increases
offspring weight gain (in words) ([1]; rats, conclusion from Table 2): increases
spleen weight (in words) ([1]; rats, males and second generation pups): spleen weight reduction
fetus numbers at necropsy (in words) ([2]; conclusion from Table 5): increase
FETAL DATA AT SCHEDULED NECROPSY, SEX FEMALE, MEAN ([2]; group 2, 500 MG/KG/DAY): 7.2
FETAL DATA AT SCHEDULED NECROPSY, SEX FEMALE, N (number of fetuses) ([2]; group 2, 500 MG/KG/DAY): 181
FETAL DATA AT SCHEDULED NECROPSY, SEX MALE, MEAN ([2]; group 2, 500 MG/KG/DAY): 7.5
FETAL DATA AT SCHEDULED NECROPSY, SEX MALE, N (number of fetuses) ([2]; group 2, 500 MG/KG/DAY): 187
FETAL DATA AT SCHEDULED NECROPSY, VIABLE FETUSES, MEAN ([2]; group 2, 500 MG/KG/DAY): 14.7
FETAL DATA AT SCHEDULED NECROPSY, SEX FEMALE, MEAN ([2]; group 3, 750 MG/KG/DAY): 6.6
FETAL DATA AT SCHEDULED NECROPSY, SEX FEMALE, N (number of fetuses) ([2]; group 3, 750 MG/KG/DAY): 166
FETAL DATA AT SCHEDULED NECROPSY, SEX MALE, MEAN ([2]; group 3, 750 MG/KG/DAY): 7.5
FETAL DATA AT SCHEDULED NECROPSY, SEX MALE, N (number of fetuses) ([2]; group 3, 750 MG/KG/DAY): 188
FETAL DATA AT SCHEDULED NECROPSY, VIABLE FETUSES, MEAN ([2]; group 3, 750 MG/KG/DAY): 14.2
FETAL DATA AT SCHEDULED NECROPSY, SEX FEMALE, MEAN ([2]; group 4, 1,000 MG/KG/DAY): 8.3
FETAL DATA AT SCHEDULED NECROPSY, SEX FEMALE, N (number of fetuses) ([2]; group 4, 1,000 MG/KG/DAY): 208
FETAL DATA AT SCHEDULED NECROPSY, SEX MALE, MEAN ([2]; group 4, 1,000 MG/KG/DAY): 6.8
FETAL DATA AT SCHEDULED NECROPSY, SEX MALE, N (number of fetuses) ([2]; group 4, 1,000 MG/KG/DAY): 170
FETAL DATA AT SCHEDULED NECROPSY, VIABLE FETUSES, MEAN ([2]; group 4, 1,000 MG/KG/DAY): 15.1
